4 compounds from ChEMBL document CHEMBL5223145, “A small molecule binding to TGGAA pentanucleotide repeats that cause spinocerebellar ataxia type 31” (Bioorg Med Chem Lett, 2023) can be followed below.

Structures are written as SMILES. Activity calls are given as the source filed them. The calls are words filed in the database; no cut-off is given here.

Test [1] can be described thus: Stabilization of GGA/GGA-motif DNA (unknown origin) assessed as increase in melting temperature.
Test [2] is described as follows: Stabilization of AGG/AGG-motif DNA (unknown origin) assessed as increase in melting temperature.
Test [3] is described as follows: Stabilization of GGC/GGC -motif DNA (unknown origin) assessed as increase in melting temperature.
Test [4] in a line: Stabilization of AGA/AAA-motif DNA (unknown origin) assessed as increase in melting temperature at 5 to 10 uM. The following applies: dose 5-10 µM.
Test [5] in a line: Stabilization of TGGAA DNA (unknown origin) assessed as increase in melting temperature at 2 to 20 uM. To be noted: dose 2-20 µM.
Test [6] in a line: Binding affinity to GGA/GGA-motif hairpin DNA (unknown origin) assessed as association constant by isothermal titration calorimetry. On the technique in general: ITC needs no label: the signal is the heat of the interaction.
Test [7] can be described thus: Stabilization of AAA/AAA-motif DNA (unknown origin) assessed as increase in melting temperature at 5 to 10 uM. To be noted: dose 5-10 µM.
The nature of test [8]: Stabilization of GGA/AGG-motif DNA (unknown origin) assessed as increase in melting temperature at 5 to 10 uM. To be noted: dose 5-10 µM.
Test [9] in a line: Stabilization of GGA/AAA-motif DNA (unknown origin) assessed as increase in melting temperature at 5 to 10 uM. To be noted: dose 5-10 µM.
Test [10] can be described thus: Stabilization of GGA/AGA-motif DNA (unknown origin) assessed as increase in melting temperature at 5 to 10 uM. The following applies: dose 5-10 µM.
The nature of test [11]: Stabilization of AGA/AGA-motif DNA (unknown origin) assessed as increase in melting temperature at 5 to 10 uM. The following applies: dose 5-10 µM.

As for `Cc1ccc2ccc(NC(=O)CCNCCC(=O)Nc3ccc4ccc(C)nc4n3)nc2n1`, the Tm in test [1] is 7.5 °C; in test [3], 1.8 °C. Moreover, the outcome in test [2] was Active.

Turning to `Cc1ccc2ccc(NC(=O)CCN(CCCCN)CCC(=O)Nc3ccc4ccc(C)nc4n3)nc2n1`, the Tm in test [1] came to 6 °C. Besides, the result in [2] was Active. The result in test [3] was inactive.

Regarding `Cc1ccc2ccc(NC(=O)OCCCNCCCOC(=O)Nc3ccc4ccc(C)nc4n3)nc2n1`, the Tm in [1] was 6 °C. Further, the result in test [2] was Active. In addition, in test [3], the outcome was inactive.

In the case of `Cc1ccc2ccc(NC(=O)CCN(CCC(=O)Nc3ccc4ccc(C)nc4n3)C(=O)CCCN)nc2n1`, the Tm in [4] is 0.3 °C; in [1] it was 13.8 °C; in test [5], 68.5 °C; in [7], -1.2 °C; in [8] it was 13.8 °C; in test [3] it was 4.6 °C. Moreover, the Tm in test [9] was -1.2 °C; in test [10], 9.8 °C; in test [11], 11.6 °C. The Ka in test [6] was 2.5 10^7/M. In [2], the outcome was inactive.
